Patent publication US20040106671A1, “Remedies for vesical hyperesthesia” (priority 2001, published 2004)

Assays:
dd male mice = assay: Acute toxicity test; format: in vivo; conditions: oral administration, mortality on the seventh day after the administration
Description: The test compound was administered orally or intraperitoneally to 3 animals per group of dd male mice (body weight: 20±1 g). The minimum lethal dose (MLD) value was obtained by observing mortality on the seventh day after the administration.

[1] = test system: Hypersensitivity of Bladder with Cystitis; assay: Inhibitory activity on hypersensitivity of bladder with cystitis (cystometry, xylene-induced cystitis); format: in vivo, Male SD rats; conditions: oral, rats with xylene-induced cystitis; for pre-micturition contractions (amplitude, relative value, value before administration defined as 100): 0.05 mg/mL suspension at 2 mL/kg, average ± standard error, n = 13
Description: The experiment was carried out by referring to the method of Morikawa, et al. [Jpn. J. Pharmacol., Vol. 52, pp. 587-595 (1990)]. Male SD rats weighing from 250 to 400 g (supplied by Japan SLC) were used in the test. Five to seven animals of these rats were put in each metal cage and reared by allowing them to freely take commercially available chow and water, in an animal room at room temperature between 19 and 25° C. and humidity between […] and 70% under illumination for 12 hours (from 7:00 a.m. to 7:00 p.m.) per day. The rats were subjected to bladder catheterization. Under anesthesia with pentobarbital sodium, the bladder was exposed by midline incision of the abdomen. […] The bladder catheter was fixed with a surgical silk ligature and indwelled. The other end of the catheter was exposed subcutaneously from the back of the neck, plugged and then fixed to the skin with a surgical thread. Two to three days after the bladder catheterization, a cystometry test was performed. The rats were put in a Bollman cage (Natsume Seisakusho Co., Ltd.) and a three-way cock was connected to the bladder catheter, one end of the cock was connected to a pressure transducer (Nihon Kohden Corp.) and the other end was connected to a 50-mL syringe (Terumo Corp.) arranged to an infusion pump (Harvard Apparatus, Inc.) for physiological saline infusion. The intravesical pressure signal from the pressure transducer was amplified with a strain pressure amplifier (AP-601G, Nihon Kohden Corp.) connected thereto, and was recorded on a thermal array recorder (RTA-1200, Nihon Kohden Corp.) via a polygraph system (RMP-6008, Nihon Kohden Corp.) containing the above amplifier. After the completion of the preparation for the measurement, a room temperature physiological saline was continuously infused into the bladder at a flow rate of 3 mL/h, and the intravesical pressure was measured to observe micturition intervals. After the micturition intervals became constant, the intravesical pressure waveform was recorded for one hour. Then, saline infusion was stopped, and 0.5 mL of xylene (Wako Pure Chemical Industries, Ltd.) was infused into the bladder through the catheter and was removed about 10 seconds later to cause cystitis. After 30 minutes, the continuous infusion of saline was started again and the intravesical pressure was monitored for about one hour to obtain the value before dosing. The test compound was suspended in a 0.5 w/v % aqueous solution of methylcellulose at a concentration of 0.05 mg/mL. The suspension or a vehicle was orally administered to the animals at a volume of 2 mL/kg. After the administration of the test compound, the intravesical pressure waveform was recorded for 4.5 hours. […] Pre-micturition contraction was measured as an index of bladder hypersensitivity. The values of pre-micturition contractions were read from the intravesical pressure waveform recorded on a chart paper using a digitizer (KD3220, Graphtec Corporation) controlled by a computer (PC-9801NS/R, NEC), and saved as a WJ2 file on Lotus 1-2-3 R2.5J (Lotus). […] The amplitude of pre-micturition contractions was expressed as a relative value when the value before the drug administration that was defined as 100, and the average ±standard error was calculated for each group.

Structure (SMILES): C[C@](O)(C(=O)Nc1cccc2c1C(=O)c1sccc1CS2(=O)=O)C(F)(F)F [Compound 1, (S)-(+)-N-(5,5-dioxido-10-oxo-4,10-dihydrothieno[3,2-c][1]benzothiepin-9-yl)-3,3,3-trifluoro-2-hydroxy-2-methylpropanamide]
- minimum lethal dose (MLD) (dd male mice): > 1000 mg/kg
- pre-micturition contractions (amplitude, relative value, value before administration defined as 100) ([1]; After 1 hour): 71.5 ± 6.5%
- pre-micturition contractions (amplitude, relative value, value before administration defined as 100) ([1]; After 2 hours): 64.7 ± 6.8 %
- pre-micturition contractions (amplitude, relative value, value before administration defined as 100) ([1]; After 3 hours): 61.7 ± 6.8 %
- pre-micturition contractions (amplitude, relative value, value before administration defined as 100) ([1]; After 4 hours): 61.6 ± 5.4 %
- effect on pre-micturition contractions (in words) ([1]; Test Example 1): inhibited pre-micturition contractions
